# Results published in US12643935B2, “PD-L1 binding peptides” (UNIVERSITY OF SOUTHERN CALIFORNIA, priority 2020, dated 2026).
# Entries after “also recorded” stand apart in the source; their conditions may differ.
# Columns and labels:
# hPD-L1 [1] = biological target: T1, hPD-L1 (Homo sapiens, UniProt Q9NZQ7); experiment: Fluorescence polarization of ROX-labeled SPAM with glycosylated hPD-L1*; type: binding; parameters: The hPD-L1* vector included amino acids A18-T239, an Avi Tag and a hexahistidine tag; hexahistidine tag; made in house; host or cells: Expi293F; conditions: T=22° C., 100 nM ROX-SPAM, read-out: dissociation constant (KD) for hPD-L1*
# Procedure: (§1) To evaluate the affinity of SPAM for hPD-L1 and hPD-L1*, we measured the KD by fluorescence polarization. […] The resulting values were plotted against the concentration of hPD-L1 or hPD-L1* and fit to a one-site saturation binding model with GraphPad Prism.
# (§2) A stock solution of hPD-L1 or hPD-L1* with a 5 μM starting concentration was prepared and serially diluted to concentrations ranging from 5 μM to 2.4 nM. […] The fluorescence polarization of each sample was measured on a Synergy H4 Hybrid Multi-Mode Microplate Reader. Each measurement was carried out in triplicate and the mean value was calculated. The values were fit to a one-site saturation binding model in GraphPad Prism to obtain the corresponding equilibrium dissociation constants.
# Target sequence in this assay (Q9NZQ7 18-239): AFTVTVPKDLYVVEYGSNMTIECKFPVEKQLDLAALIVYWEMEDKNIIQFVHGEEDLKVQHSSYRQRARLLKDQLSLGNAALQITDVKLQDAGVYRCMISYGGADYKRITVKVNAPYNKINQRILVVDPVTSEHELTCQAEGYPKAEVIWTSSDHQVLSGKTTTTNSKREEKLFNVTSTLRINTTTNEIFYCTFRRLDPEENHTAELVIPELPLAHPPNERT
# [2] = biological target: T2, CHO-mPD-L1 cells which express mPD-L1 (Mus musculus, UniProt Q9EP73); experiment: Antibody competition by flow cytometry on CHO-mPD-L1 cells; type: cell-based; conditions: pre-treatment 0-20 μM, 50 nM antibody
# T2 construct: expressed in transfected cells; host or cells: CHO
# T2 sequence (Q9EP73 19-290): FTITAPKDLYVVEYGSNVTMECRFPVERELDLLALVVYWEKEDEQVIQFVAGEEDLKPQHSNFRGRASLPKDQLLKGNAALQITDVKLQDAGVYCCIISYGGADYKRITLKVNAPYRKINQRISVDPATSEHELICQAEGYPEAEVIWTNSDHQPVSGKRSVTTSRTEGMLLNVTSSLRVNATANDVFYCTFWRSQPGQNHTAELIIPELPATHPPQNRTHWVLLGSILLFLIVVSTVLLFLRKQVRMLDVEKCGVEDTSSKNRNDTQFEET
# Procedure: We performed similar experiments with CHO-mPD-L1 cells which express mPD-L1 to determine if this effect was specific to hPD-L1 expression. We have developed two cross-reactive anti-hPD-L1/mPD-L1 antibodies, 16373 and 16377. These antibodies were labeled with Fluorescein, titrated against CHO-hPD-L1 and CHO-mPD-L1 cells (FIG. 12B-C) and subjected to competition experiments as described above.
# The cells were washed once with cold serum free DMEM and incubated with 1 nM FAM-Atezolizumab, 10 nM FAM-Avelumab, 50 nM FAM-16373, or 50 nM FAM-16377 in serum free DMEM at 4° C. for 30 min. Cells were then washed three times with cold serum free DMEM. Cells were subsequently processed by flow cytometry with a BD FACSCalibur system using the FL1 channel. FlowJo v10.1 was used to gate to the major population and median FL1 fluorescence reported.
# hPD-L1/mPD-1 interaction = biological target: T3, hPD-L1/mPD-1 interaction (Homo sapiens, UniProt Q9NZQ7); experiment: ELISA/IP assay of hPD-L1/mPD-1 interaction; type: biochemical; conditions: 10 μM SPAM
# T3 construct: designed from A18 to T239 with a methionine added to the N-terminus; hexahistidine tag (C); made in house; host or cells: E. coli BL21 (DE3)
# T3 sequence (Q9NZQ7 with tags, fused parts or gaps): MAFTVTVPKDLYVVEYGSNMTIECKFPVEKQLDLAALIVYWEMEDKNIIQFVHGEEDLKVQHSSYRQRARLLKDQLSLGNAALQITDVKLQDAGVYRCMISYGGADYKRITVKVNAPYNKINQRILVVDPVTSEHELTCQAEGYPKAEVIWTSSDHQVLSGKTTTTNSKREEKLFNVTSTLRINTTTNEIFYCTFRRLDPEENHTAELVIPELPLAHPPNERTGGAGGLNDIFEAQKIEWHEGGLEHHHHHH
# Procedure: An ELISA-based activity assay was employed to measure the potency of SPAM peptide inhibition of the hPD-L1/PD-1 interaction (FIG. 4C-D). In this assay, biotinylated hPD-L1 was immobilized on streptavidin magnetic beads and incubated with various concentrations of SPAM peptide, followed by incubation with HA-tagged mPD-1 and detection with anti-HA secondary antibody.
# For ELISA/IP assays, 20 L of MyOne™ Streptavidin T1 magnetic beads Dynabeads™ (Thermo Fisher Scientific) were loaded with 100 nM biotinylated hPD-L1 in assay buffer (20 mM HEPES-KOH pH 7.5, 150 mM NaCl, 0.2% (v/v) Tween-20, 1 mg/mL BSA and 50 μg/mL tRNA) at 4° C. The beads were subsequently washed and incubated with either DMSO or different concentrations of SPAM peptide (0.1, 1 or 10 μM) in the assay buffer for 1 h at 4° C. followed by adding HA-tagged mPD-1 (100 nM) for 1 h at 4° C. The samples were then washed and incubated with a 1:5,000 dilution of HRP conjugated anti-HA antibody (Pierce HA Antibody, Rockford. Il, USA) for 1 h at 4° C. The beads were washed again and developed with TMB Substrate Kit (Thermo Scientific) for 30 minutes and the reactions stopped by adding 100 L of […] sulfuric acid. The absorbance at 450 nm was measured on a Biotek Synergy H1 Hybrid Multi-Mode Microplate Reader.
# hPD-L1 [3] = biological target: T1, hPD-L1; experiment: hPD-L1 binding of [35S]-SPAM after incubation in 25% human serum; type: in vitro ADME; parameters: designed from A18 to T239 with a methionine added to the N-terminus; hexahistidine tag (C); made in house; conditions: 37° C.
# Procedure: We performed two complementary assays to determine what effect serum has on the SPAM/hPD-L1 interaction.
# In a complementary test, SPAM was in vitro translated and [^35S]-labeled as described above. After purification as above, the [^35S]-labeled peptide-RNA fusions were incubated with DMEM media supplemented with 25% (v/v) single donor human plasma at 37° C. in triplicate for 0, 60, 120, 240 and 480 min. The binding of serum incubated peptides was then evaluated on hPD-L1 immobilized beads using 75 pmol hPD-L1 immobilized on streptavidin agarose beads (Thermo Fisher scientific) in DMEM supplemented with 25% Serum buffer and 0.02 mM biotin at 4° C. for 1 h. The supernatant was removed and was counted. The beads were subsequently washed three times with 1 mL of blocking buffer and the washes were also counted. Finally, the beads were resuspended in 1 mL of blocking buffer and were counted separately. The ratio of the counts remaining on the beads to the total counts added to the binding reaction (the sum of the counts for supernatant, washes, and beads) was calculated to determine the percent bound.
# Target sequence in this assay (Q9NZQ7 with tags, fused parts or gaps): as above
# hPD-L1 [4] = biological target: T1, hPD-L1; experiment: Fluorescence polarization of ROX-labeled SPAM with hPD-L1; type: binding; parameters: designed from A18 to T239 with a methionine added to the N-terminus; hexahistidine tag (C); made in house
# Procedure: as §1, §2
# Target sequence in this assay (Q9NZQ7 with tags, fused parts or gaps): as above
structure (smiles),measurement,setting,value
C#CC[C@H](NC(=O)CNC(=O)[C@H](CO)NC(=O)[C@H](C)NC(=O)[C@H](Cc1ccc(O)cc1)NC(=O)[C@H](Cc1c[nH]cn1)NC(=O)[C@H](CC(C)C)NC(=O)[C@@H](NC(=O)[C@H](Cc1c[nH]c2ccccc12)NC(=O)[C@H](Cc1ccccc1)NC(=O)[C@H](CCCCN)NC(=O)[C@H](CC(N)=O)NC(=O)[C@H](CC(C)C)NC(=O)[C@@H](NC(=O)[C@H](Cc1c[nH]cn1)NC(=O)[C@H](CC(=O)O)NC(=O)[C@H](CC(C)C)NC(=O)[C@H](Cc1ccccc1)NC(=O)[C@@H](NC(=O)[C@@H]1CCCN1C(=O)[C@@H](N)CCSC)[C@@H](C)CC)[C@@H](C)CC)[C@@H](C)CC)C(N)=O (stereo in doubt) [SPAM],Kd,hPD-L1 [1],0.067 µM
same,blocking of Fluorescein-16373 and Fluorescein-16377 in CHO-mPD-L1 cells,[2],blocking was absent
same,inhibition of mPD-1 binding to hPD-L1,hPD-L1/mPD-1 interaction,almost completely disrupted; also recorded: almost completely inhibits
same,loss of binding in presence of human serum,hPD-L1 [3],~25%
same,binding to immobilized hPD-L1 after serum incubation,hPD-L1 [3]; eight hours,no further decrease
same,binding to immobilized hPD-L1 after serum incubation,hPD-L1 [3]; four hours,slight decrease
same,binding to immobilized hPD-L1 after serum incubation,hPD-L1 [3]; two hours,No decrease
same,Kd,"hPD-L1 [4]; non-glycosylated hPD-L1, T=21° C., 100 nM ROX-SPAM, read-out: dissociation constant (KD) for hPD-L1",0.119 µM
same,Kd,"hPD-L1 [4]; range over glycosylated and non-glycosylated hPD-L1, read-out: KD for hPD-L1",0.067 to 0.119 µM
